Data reported in ChEMBL document CHEMBL1909046, “DrugMatrix in vitro pharmacology data”.

Legend:
[1] = target: T1, B2 bradykinin receptor (Homo sapiens, UniProt P30411); assay type: cell membranes, Membrane; details: chem-1; also: in other assays of this panel Not Active means under 50% inhibition at 10 µM
T1 sequence (P30411 whole entry): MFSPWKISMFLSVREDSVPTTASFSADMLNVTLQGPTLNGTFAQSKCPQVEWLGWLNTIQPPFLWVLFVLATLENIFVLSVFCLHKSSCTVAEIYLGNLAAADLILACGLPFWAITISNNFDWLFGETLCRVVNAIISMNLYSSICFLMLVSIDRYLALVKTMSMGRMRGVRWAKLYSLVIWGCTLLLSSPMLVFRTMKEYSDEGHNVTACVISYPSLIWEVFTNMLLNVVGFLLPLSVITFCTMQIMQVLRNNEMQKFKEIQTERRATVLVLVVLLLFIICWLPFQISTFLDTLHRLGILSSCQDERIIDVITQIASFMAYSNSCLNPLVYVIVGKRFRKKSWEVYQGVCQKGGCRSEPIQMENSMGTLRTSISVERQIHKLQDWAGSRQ

[2] = DRUGMATRIX: Imidazoline I2, Central radioligand binding (ligand: [3H] Idazoxan); assay type: cell membranes, Rattus norvegicus, Wistar, Cerebral cortex, Membrane; details: Not Active = under 50% inhibition at 10 µM
[3] = target: T2, D(4) dopamine receptor (Homo sapiens, UniProt P21917); assay: DRUGMATRIX: Dopamine D4.2 radioligand binding (ligand: [3H] Spiperone); assay type: cell membranes, CHO-K1, Membrane; details: cho-k1; Not Active = under 50% inhibition at 10 µM
T2 sequence (P21917 whole entry): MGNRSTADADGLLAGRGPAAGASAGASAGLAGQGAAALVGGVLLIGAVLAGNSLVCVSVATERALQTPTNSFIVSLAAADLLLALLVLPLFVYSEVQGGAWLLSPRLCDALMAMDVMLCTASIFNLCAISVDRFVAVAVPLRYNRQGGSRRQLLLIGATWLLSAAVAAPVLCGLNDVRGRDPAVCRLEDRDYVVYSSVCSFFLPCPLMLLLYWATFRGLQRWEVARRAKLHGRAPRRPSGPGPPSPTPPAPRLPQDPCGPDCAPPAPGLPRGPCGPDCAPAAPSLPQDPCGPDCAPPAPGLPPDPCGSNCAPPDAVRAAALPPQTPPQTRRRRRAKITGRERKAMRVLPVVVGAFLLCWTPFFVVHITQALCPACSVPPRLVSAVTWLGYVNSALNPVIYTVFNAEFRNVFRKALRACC

[4] = target: Mitogen-activated protein kinase 3 (Homo sapiens, UniProt P27361); assay: DRUGMATRIX: Protein Serine/Threonine Kinase, ERK1 enzyme inhibition (substrate: Myelin Basic Protein); set-up: species or system Escherichia coli; details: Not Active = under 50% inhibition at 10 µM
[5] = DRUGMATRIX: Platelet-Derived Growth Factor (PDGF) radioligand binding (ligand: [125I] PDGF); assay type: cell-based; details: nih3t3; Not Active = under 50% inhibition at 10 µM
[6] = target: Substance-P receptor (Homo sapiens, UniProt P25103); assay type: cell membranes, CHO, Membrane; details: cho; also: in other assays of this panel Not Active means under 50% inhibition at 10 µM
[7] = target: Matrix metalloproteinase-9 (Homo sapiens, UniProt P14780); assay: biochemical; assay type: cell-based;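 also: inhibition of isolated MMP-9 enzyme activity toward a synthetic peptide substrate, from the DrugMatrix protease screening panel; in other assays of this panel Not Active means under 50% inhibition at 10 µM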
Matrix metalloproteinase-9, sequence (P14780 whole entry): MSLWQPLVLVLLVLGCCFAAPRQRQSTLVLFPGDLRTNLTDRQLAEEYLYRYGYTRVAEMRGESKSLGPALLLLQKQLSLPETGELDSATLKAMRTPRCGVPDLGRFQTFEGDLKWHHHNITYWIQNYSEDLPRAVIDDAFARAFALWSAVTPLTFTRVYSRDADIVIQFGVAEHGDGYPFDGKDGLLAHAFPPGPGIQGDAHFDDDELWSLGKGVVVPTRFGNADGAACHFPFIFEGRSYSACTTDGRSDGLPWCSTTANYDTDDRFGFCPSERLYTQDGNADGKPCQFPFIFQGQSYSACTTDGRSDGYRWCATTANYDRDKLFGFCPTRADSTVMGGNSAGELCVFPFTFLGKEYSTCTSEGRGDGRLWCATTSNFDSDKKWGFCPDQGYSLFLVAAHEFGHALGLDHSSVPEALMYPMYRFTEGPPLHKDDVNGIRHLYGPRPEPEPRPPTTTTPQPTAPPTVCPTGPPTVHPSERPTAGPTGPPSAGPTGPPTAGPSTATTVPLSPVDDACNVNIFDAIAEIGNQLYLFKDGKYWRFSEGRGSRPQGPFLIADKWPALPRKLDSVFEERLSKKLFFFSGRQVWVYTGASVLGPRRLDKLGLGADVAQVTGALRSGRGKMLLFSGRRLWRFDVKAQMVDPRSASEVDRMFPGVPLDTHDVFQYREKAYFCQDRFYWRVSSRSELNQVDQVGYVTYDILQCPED

Substance-P receptor, sequence (P25103 whole entry): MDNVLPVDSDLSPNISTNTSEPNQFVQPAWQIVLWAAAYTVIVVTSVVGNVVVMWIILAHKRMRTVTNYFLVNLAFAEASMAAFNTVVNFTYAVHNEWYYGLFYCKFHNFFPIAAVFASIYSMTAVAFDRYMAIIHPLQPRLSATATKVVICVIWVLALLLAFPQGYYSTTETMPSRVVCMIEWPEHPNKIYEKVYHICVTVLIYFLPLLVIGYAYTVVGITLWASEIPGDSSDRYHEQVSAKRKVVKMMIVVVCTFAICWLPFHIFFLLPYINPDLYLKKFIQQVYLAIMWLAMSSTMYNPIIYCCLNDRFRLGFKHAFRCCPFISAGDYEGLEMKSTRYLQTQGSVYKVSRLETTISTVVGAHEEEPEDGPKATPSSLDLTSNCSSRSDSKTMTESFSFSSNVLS
Mitogen-activated protein kinase 3, sequence (P27361 whole entry): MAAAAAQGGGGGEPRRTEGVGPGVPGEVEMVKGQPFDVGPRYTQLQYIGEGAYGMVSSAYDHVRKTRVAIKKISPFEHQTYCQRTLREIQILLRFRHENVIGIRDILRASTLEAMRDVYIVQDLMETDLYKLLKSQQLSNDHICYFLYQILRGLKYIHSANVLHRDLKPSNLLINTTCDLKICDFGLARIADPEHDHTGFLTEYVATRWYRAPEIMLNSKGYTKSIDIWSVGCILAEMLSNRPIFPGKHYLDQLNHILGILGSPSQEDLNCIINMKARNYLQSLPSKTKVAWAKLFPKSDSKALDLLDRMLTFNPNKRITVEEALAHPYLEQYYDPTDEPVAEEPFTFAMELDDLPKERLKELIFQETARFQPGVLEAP

Row | SMILES | IC50 [1] | IC50 [2] | Ki [2] | IC50 [3] | IC50 [4] | IC50 [5] | Ki [5] | IC50 [6] | IC50 [7] | IC50 ([2]; read-out: IC50) [nM] | Ki ([2]; read-out: Ki) [nM]
1 | COC(=O)CCc1ccc(OCC(O)CNC(C)C)cc1 (centres undefined) [ESMOLOL] | Not Active | Not Active | Not Active | Not Active | Not Active | Not Active | Not Active | Not Active | Not Active | – | –
2 | CCC1(C)CC(=O)NC1=O (centres undefined) [ETHOSUXIMIDE] | Not Active | Not Active | Not Active | Not Active | Not Active | Not Active | Not Active | Not Active | Not Active | – | –
3 | C#C[C@]1(OC(C)=O)CC[C@H]2[C@@H]3CCC4=C[C@@H](OC(C)=O)CC[C@@H]4[C@H]3CC[C@@]21C [ETHYNODIOL DIACETATE] | Not Active | Not Active | Not Active | Not Active | Not Active | Not Active | Not Active | Not Active | Not Active | – | –
4 | COc1cc([C@@H]2c3cc4c(cc3[C@@H](O[C@@H]3O[C@@H]5CO[C@@H](C)O[C@H]5[C@H](O)[C@H]3O)[C@H]3COC(=O)[C@H]23)OCO4)cc(OC)c1O [ETOPOSIDE] | Not Active | Not Active | Not Active | Not Active | Not Active | Not Active | Not Active | Not Active | Not Active | – | –
5 | C=CCc1ccc(O)c(OC)c1 [EUGENOL] | Not Active | Not Active | Not Active | Not Active | Not Active | Not Active | Not Active | Not Active | Not Active | – | –
6 | CC(C(=O)O)c1cccc(Oc2ccccc2)c1 (centres undefined) [FENOPROFEN] | Not Active | Not Active | Not Active | Not Active | Not Active | Not Active | Not Active | Not Active | Not Active | – | –
7 | CC(C)(C)NC(=O)[C@H]1CC[C@H]2[C@@H]3CC[C@H]4NC(=O)C=C[C@]4(C)[C@H]3CC[C@]12C [FINASTERIDE] | Not Active | Not Active | Not Active | Not Active | Not Active | Not Active | Not Active | Not Active | Not Active | – | –
8 | COc1ccc2c3c1O[C@H]1C[C@@H](O)C=C[C@@]31CCN(C)C2 [GALANTAMINE] | Not Active | Not Active | Not Active | Not Active | Not Active | Not Active | Not Active | Not Active | Not Active | – | –
9 | Nc1ccn([C@@H]2O[C@H](CO)[C@@H](O)C2(F)F)c(=O)n1 [GEMCITABINE] | Not Active | Not Active | Not Active | Not Active | Not Active | Not Active | Not Active | Not Active | Not Active | – | –
10 | CC(C)=CCC/C(C)=C/CO [GERANIOL] | Not Active | Not Active | Not Active | Not Active | Not Active | Not Active | Not Active | Not Active | Not Active | – | –
11 | N=C(N)NC(=O)Cc1c(Cl)cccc1Cl [GUANFACINE] | Not Active | – | – | Not Active | Not Active | Not Active | Not Active | Not Active | Not Active | 45 | 30
